Source: patent US20070071831A1, “Product for the prevention and the treatment of grapevine infections and method of preparation thereof” (Vomm Impianti e Processi S.p.A., priority 2005, published 2007)

Experiments:
corky bark = experiment: Vineyard treatment of grapevine plants against corky bark; format: in vivo; details: remaining plants (more than 500) of the same vineyard
Excerpt: Finally, some preliminary experiments have shown that the product of the invention is effective not only against downy mildew infections but also against other plant diseases such as, in particular, corky bark, caused by the phytoplasm transmitted by the vector Scaphoideus titanus Ball, a Deltocefalinae plathopper.
In particular the product has been tested on 70 grapevine plants arranged on five rows in a vineyard wherein the remaining plants (more than 500) have been treated with a conventional synthetic plant protection product (Fenitrothion).

downy mildew = experiment: Vineyard treatment of grapevine plants against downy mildew; format: in vivo, Plasmopara viticola; details: remaining plants of a vineyard of approximately 1000 grapevine plants; same number and times of applications; beginning of March to end of July
Procedure: The product obtained according to example 1 was diluted with water, mixing a part of product with ten parts of water and it was used to treat the grapevine plants.
The product thus diluted was applied by spraying on 70 grapevine plants arranged in 5 rows in a vineyard comprising approximately 1000 grapevine plants. The remaining plants were then treated with a conventional synthetic plant protection product (Metiram).
The treatments were carried out during the period between the beginning of March and the end of July, each time applying a quantity of 100 g of diluted product per plant. The same number of applications as those of the conventional plant protection product were carried out, at the same times.

Row | Molecule | plants attacked by corky bark (corky bark) | plants showing obvious signs of downy mildew infestation (downy mildew)
1 | COP(=S)(OC)Oc1ccc([N+](=O)[O-])c(C)c1 [Fenitrothion] | majority | 
2 | Metiram |  | 18%
